Where a SMILES comes first, the peptide text is derived from it. [ ]: non-standard residue; d: D form. Oic = O=C(O)[C@@H]1C[C@@H]2CCCC[C@@H]2N1; Hyp = O=C(O)[C@@H]1C[C@@H](O)CN1; dTic = O=C(O)[C@H]1Cc2ccccc2CN1; 2Thi = N[C@@H](Cc1cccs1)C(=O)O
Biological target: T1, human bradykinin B1 receptor (Homo sapiens, UniProt P46663)
T1 construct: To upregulate expression of the B1 receptor the cells are treated with 100 units/ml of IL-1β; endogenous in cells; host or cells: WI-38 cells treated with 100 units/ml IL-1β for 3 hours
T1 sequence (P46663 1-353): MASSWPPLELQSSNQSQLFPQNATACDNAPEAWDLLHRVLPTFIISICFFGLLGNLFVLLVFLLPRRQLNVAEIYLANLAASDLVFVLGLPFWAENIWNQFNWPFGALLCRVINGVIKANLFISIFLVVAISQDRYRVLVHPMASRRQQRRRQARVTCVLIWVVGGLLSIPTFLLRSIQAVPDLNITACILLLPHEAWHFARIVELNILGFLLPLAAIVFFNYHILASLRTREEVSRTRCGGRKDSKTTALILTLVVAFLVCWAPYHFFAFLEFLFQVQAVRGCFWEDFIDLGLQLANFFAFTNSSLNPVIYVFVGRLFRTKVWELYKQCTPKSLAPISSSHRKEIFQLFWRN
Assay: Test I: Bradykinin Receptor Binding Assay ([3H]-desArg10kallidin displacement, IL-1β-treated WI-38 cells)
Conditions: displacement of [3H]-desArg10kallidin, KI from IC50 by Cheng-Prussoff equation
Experimental: WI-38 cells are grown in Dulbecco's Modified Eagle Medium s supplemented with 1% non-essential amino acids, 2 mM L-glutamine, 100 IU/ml penicillin, 100 μg/ml streptomycin and 10% foetal calf serum. The cells are grown in 175 cm^2 tissue culture flasks and split approximately 1–2 times a week at a ratio of 1:2 using trypsin to detach the cells. WI-38 cells are plated onto 24 well plates at approximately 50,000 cells per well and grown overnight. To upregulate expression of the B1 receptor the cells are treated with 100 units/ml of IL-1β for 3 hours prior to the assay. The binding buffer is 10 mM HEPES in Hank's Balanced Salt solution pH 7.4 plus 1 mM phenanthroline and 0.14 mg/ml bacitracin. […] Non-specific binding is determined with 3 μM desArg^10kallidin. […] The cells are solubilised with 0.2% SDS and the amount of radioactivity in the samples determined by liquid scintillation counting. […]
Results are calculated by subtracting the value for non-specific binding from all values and calculating the amount of binding for each concentration of compound as a percentage of the specific binding with no compound. The IC50 values are calculated in ORIGIN using a logistic fit. KI values are calculated from the IC50 values using the Cheng-Prussoff equation (KI=IC50/(1+([RL]/Kd)) where [RL] is the radioligand concentration.

SMILES	Ki [nM]
N=C(N)NCCC[C@@H](N)C(=O)N[C@@H](CCCNC(=N)N)C(=O)N1CCC[C@H]1C(=O)N1C[C@H](O)C[C@H]1C(=O)NCC(=O)N[C@@H](Cc1cccs1)C(=O)N[C@@H](CO)C(=O)N1Cc2ccccc2C[C@@H]1C(=O)N1[C@H](C(=O)O)C[C@@H]2CCCC[C@@H]21 [desArg^10HOE140, D-Arg-[Hyp^3, Thi^5, D-Tic^7, Oic^8]desArg^9 bradykinin] (H-[dR]RP[Hyp]G[2Thi]S[dTic][Oic]-OH; N-terminus and C-terminus assumed)	63
O=C(O)CN(CCOc1ccc2c(c1)CCC2)S(=O)(=O)c1ccc(Br)cc1Cl [Example 5, {(4-bromo-2-chloro-benzenesulfonyl)-[2-(indan-5-yloxy)-ethyl]-amino}-acetic acid]	~300
